Measurements reported in US20250230193A1, “CYCLIC COMPOUND HAVING SELECTIVE KRAS INHIBITORY EFFECT ON HRAS AND NRAS” (CHUGAI SEIYAKU KABUSHIKI KAISHA, priority 2022, published 2025).
Where a SMILES comes first, the peptide text is derived from it. Bridges are numbered along the chain shown (N, C = ends). [ ]: non-standard residue; d: D form. The star is where a group is joined. hPhe(3-Cl-4-CF3) = N[C@@H](CCc1ccc(C(F)(F)F)c(Cl)c1)C(=O)O; NPrPhe(4-CF3) = CCCN[C@@H](Cc1ccc(C(F)(F)F)cc1)C(=O)O; NMeGly(cPent) = CN[C@H](C(=O)O)C1CCCC1; Pro(4,4-F2) = O=C(O)[C@@H]1CC(F)(F)CN1; Pro(4,4-Me2) = CC1(C)CN[C@H](C(=O)O)C1; NMeD = CN[C@@H](CC(=O)O)C(=O)O; NMeL = CN[C@@H](CC(C)C)C(=O)O; Morpholide = C1CN(*)CCO1; Ac5c = NC1(C(=O)O)CCCC1; Aze = O=C(O)[C@@H]1CCN1; Sar = CNCC(=O)O

Key:
[1] = target: GDP-bound NRAS wild-type protein (Homo sapiens, UniProt P01111); test: Binding to NRAS by surface plasmon resonance (SPR), Single Cycle Kinetics
[2] = target: GDP-bound HRAS wild-type protein (Homo sapiens, UniProt P01112); test: Binding to HRAS by surface plasmon resonance (SPR), Single Cycle Kinetics
[3] = GDP-bound NRAS wild-type vs GDP-bound KRAS wild-type, SPR
[4] = GDP-bound HRAS wild-type vs GDP-bound KRAS wild-type, SPR

Sequence of GDP-bound HRAS wild-type protein (P01112 whole entry): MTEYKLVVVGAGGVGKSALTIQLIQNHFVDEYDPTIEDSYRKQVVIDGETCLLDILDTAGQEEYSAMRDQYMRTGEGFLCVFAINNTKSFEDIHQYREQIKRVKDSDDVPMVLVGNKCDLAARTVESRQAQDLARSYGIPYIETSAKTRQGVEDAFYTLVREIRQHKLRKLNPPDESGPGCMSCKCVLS
Sequence of GDP-bound NRAS wild-type protein (P01111 whole entry): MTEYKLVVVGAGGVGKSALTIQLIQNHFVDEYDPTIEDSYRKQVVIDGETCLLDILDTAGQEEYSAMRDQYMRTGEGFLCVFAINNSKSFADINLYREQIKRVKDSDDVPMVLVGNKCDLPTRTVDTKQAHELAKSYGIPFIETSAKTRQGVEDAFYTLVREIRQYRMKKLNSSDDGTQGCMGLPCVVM

## CC[C@H](C)[C@@H]1NC(=O)[C@H](CC(C)C)N(C)C(=O)C[C@@H](C(=O)N(C)C)N(C)C(=O)[C@H](C2CCCC2)N(C)C(=O)C2(CCC2)NC(=O)[C@@H]2C[C@H](C)CN2C(=O)[C@H](CCc2ccc(C(F)(F)F)c(Cl)c2)NC(=O)CN(C)C(=O)[C@H](Cc2ccc(C)cc2)N2CC/C=C\C[C@@H](C2=O)N(C)C(=O)CN(C)C1=O [PP1852]
[1]; [3]
  NRAS/KRAS (ratio of KD value for NRAS to KD value for KRAS): A (a compound having 10 or more and less than 20 is denoted as A)
[2]; [4]
  HRAS/KRAS (ratio of KD value for HRAS to KD value for KRAS): B (a compound having 3 or more and less than 10 is denoted as B)

## CCO[C@@H]1C[C@H]2C(=O)NC3(CCC3)C(=O)N(C)[C@@H](C(CC)CC)C(=O)N(C)[C@H](C(=O)N3CCCCC3)CC(=O)N(C)[C@H]3CCC/C=C/c4ccc(cc4)C[C@@H](C(=O)N(C)CC(=O)N[C@@H](CCc4cc(F)c(C(F)(F)F)c(F)c4)C(=O)N2C1)N1CC/C=C\C[C@@H](C1=O)N(C)C(=O)CN(C1CC1)C(=O)[C@H]([C@@H](C)CC)NC3=O [PP2956]
[1]; KD ratio NRAS/KRAS, class symbols
  NRAS/KRAS (ratio of KD value with respect to GDP-bound NRAS wild-type protein to KD value with respect to KRAS): AA (a compound having 20 or more is denoted as AA)
[2]; KD ratio HRAS/KRAS, class symbols
  HRAS/KRAS (ratio of KD value with respect to GDP-bound HRAS wild-type protein to KD value with respect to KRAS): A (a compound having 10 or more and less than 20 is denoted as A)

## CCCN1C(=O)CN(C)C(=O)[C@@H]2CCN2C(=O)[C@H]([C@@H](C)CC)NC(=O)[C@H](CC(C)C)N(C)C(=O)C[C@@H](C(=O)N2CCOCC2)N(C)C(=O)[C@H](C2CCCC2)N(C)C(=O)C2(CCCC2)NC(=O)[C@@H]2CC(C)(C)CN2C(=O)[C@H](CCc2ccc(C(F)(F)F)c(Cl)c2)NC(=O)CN(C)C(=O)[C@@H]1Cc1ccc(C(F)(F)F)cc1 [PP0452] ([NMeL]I[Aze][Sar][NPrPhe(4-CF3)][Sar][hPhe(3-Cl-4-CF3)][Pro(4,4-Me2)][Ac5c][NMeGly(cPent)][NMeD]-Morpholide; lactam N-11)
[1]; KD ratio NRAS/KRAS, SPR
  NRAS/KRAS (ratio of KD value with respect to GDP-bound NRAS wild-type protein to KD value with respect to KRAS): B (a compound having 3 or more and less than 10 is denoted as B)
[2]; KD ratio HRAS/KRAS, SPR
  HRAS/KRAS (ratio of KD value with respect to GDP-bound HRAS wild-type protein to KD value with respect to KRAS): B (a compound having 3 or more and less than 10 is denoted as B)

## CC[C@H](C)[C@@H]1NC(=O)[C@H](C(C)C)N(C)C(=O)C[C@@H](C(=O)N(C)CC)N(C)C(=O)[C@H](C2CCCC2)N(C)C(=O)C2(CCC2)NC(=O)[C@@H]2C[C@H](C)CN2C(=O)[C@H](CCc2cc(F)c(C(F)(F)F)c(F)c2)NC(=O)CN(C)C(=O)[C@H](Cc2ccc(C(F)(F)F)cc2)N2CC/C=C\C[C@@H](C2=O)N(C)C(=O)CN(C)C1=O [PP2078]
[1]; SPR, GDP-bound NRAS wild-type vs GDP-bound KRAS wild-type
  NRAS/KRAS (ratio of KD value with respect to NRAS to KD value with respect to KRAS): AA (a compound having 20 or more is denoted as AA)
[2]; SPR, GDP-bound HRAS wild-type vs GDP-bound KRAS wild-type
  HRAS/KRAS (ratio of KD value with respect to HRAS to KD value with respect to KRAS): A (a compound having 10 or more and less than 20 is denoted as A)

## CCCN1C(=O)[C@@H]2CCN2C(=O)CN(C)C(=O)[C@H]([C@@H](C)CC)NC(=O)[C@H](CC(C)C)N(C)C(=O)C[C@@H](C(=O)N(C)C)NC(=O)[C@H](C2CCCC2)N(C)C(=O)C2(CCCC2)NC(=O)[C@@H]2CC(F)(F)CN2C(=O)[C@H](CCc2ccc(C(F)(F)F)c(Cl)c2)NC(=O)CN(C)C(=O)[C@@H]1Cc1ccc(C(F)(F)F)cc1 [PP0387] ([NMeL]I[Sar][Aze][NPrPhe(4-CF3)][Sar][hPhe(3-Cl-4-CF3)][Pro(4,4-F2)][Ac5c][NMeGly(cPent)]D-NMe2; lactam N-11)
[1]; KD ratio NRAS/KRAS, SPR
  NRAS/KRAS (ratio of KD for GDP-bound NRAS wild-type to KD for KRAS): C (A compound having a KD ratio of 0.1 or more and less than 3 is denoted as C)
[2]; KD ratio HRAS/KRAS, SPR
  HRAS/KRAS (ratio of KD for GDP-bound HRAS wild-type to KD for KRAS): B (a compound having 3 or more and less than 10 is denoted as B)

## CC[C@H](C)[C@@H]1NC(=O)[C@H](CC2CC2)N(C)C(=O)C[C@@H](C(=O)N(C)C)N(C)C(=O)[C@H](C2CCCC2)N(C)C(=O)C2(CCC2)N(C)C(=O)[C@@H]2CCCN2C(=O)[C@H](CCc2cc(F)c(C(F)(F)F)c(F)c2)NC(=O)CN(C)C(=O)[C@H](Cc2ccc(C)cc2)N2CC/C=C\C[C@@H](C2=O)N(C)C(=O)[C@@H]2CCCN2C1=O [PP1798]
[1]; [3]
  NRAS/KRAS (ratio of KD value for NRAS to KD value for KRAS): A (a compound having 10 or more and less than 20 is denoted as A)
[2]; [4]
  HRAS/KRAS (ratio of KD value for HRAS to KD value for KRAS): B (a compound having 3 or more and less than 10 is denoted as B)

## CCC[C@H]1C(=O)N[C@@H]([C@@H](C)CC)C(=O)N(C)CC(=O)N(C)[C@H]2C/C=C\CCN(C2=O)[C@@H](Cc2ccc(C)cc2)C(=O)N(C)CC(=O)N[C@@H](CCc2cc(F)c(C(F)(F)F)c(F)c2)C(=O)N2CCC[C@H]2C(=O)N(C)C2(CCC2)C(=O)N(C)[C@@H](C2CCCC2)C(=O)N(C)[C@H](C(=O)N(C)C)CC(=O)N1C [PP1794]
[1]; [3]
  NRAS/KRAS (ratio of KD value for NRAS to KD value for KRAS): A (a compound having 10 or more and less than 20 is denoted as A)
[2]; [4]
  HRAS/KRAS (ratio of KD value for HRAS to KD value for KRAS): B (a compound having 3 or more and less than 10 is denoted as B)

## C=CCCCCN(C)C(=O)[C@@H]1CC(=O)N(C)[C@@H](CC2CC2)C(=O)N[C@@H](CC=C)C(=O)N(C)CC(=O)N(C)[C@H]2C/C=C\CCN(C2=O)[C@@H](Cc2ccc(C(F)(F)F)cc2)C(=O)N(C)CC(=O)N[C@@H](CCc2cc(F)c(C(F)(F)F)c(F)c2)C(=O)N2C[C@H](OCC)C[C@H]2C(=O)NC2(CCC2)C(=O)N(C)[C@@H](C2CCCC2)C(=O)N1C [PP1554]
[1]; SPR, KD ratio class
  NRAS/KRAS (ratio of KD value for GDP-bound NRAS wild-type protein to KD value for KRAS): A (a compound having 10 or more and less than 20 is denoted as A)
[2]; SPR, KD ratio class
  HRAS/KRAS (ratio of KD value for GDP-bound HRAS wild-type protein to KD value for KRAS): A (a compound having 10 or more and less than 20 is denoted as A)
